How the values were obtained:
Test in all cases: relative viability (nuclei count vs DMSO), 5 days (fraction); higher = more cells survive
NCI-H1793 = test system: NCI-H1793
How it was run: (§1)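 Cells from lung cancer lines were seeded into 1536-well plates and, one day later, dosed by pin tool. Treatments were either a single drug or a fixed dose of an anchor drug with five library-drug doses (not always all listed) in √10 steps. After 5 days, nuclei were stained in a one-step fixation (final 0.05% Triton X-100, 1% formaldehyde, 1 ug/ml Hoechst) and counted on 4× images, and relative viability is the treated-to-vehicle nuclei ratio, as the median of duplicate plates.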

NCI-H322M = test system: NCI-H322M
How it was run: as §1

HARA = test system: HARA
How it was run: as §1

LXF-289 = test system: LXF-289
How it was run: as §1

PC-3 [JPC-3] = test system: PC-3 [JPC-3]
How it was run: as §1

NCI-H2126 = test system: NCI-H2126
How it was run: as §1

NCI-H2170 = test system: NCI-H2170
How it was run: as §1

NCI-H23 = test system: NCI-H23
How it was run: as §1

NCI-H1915 = test system: NCI-H1915
How it was run: as §1

NCI-H1666 = test system: NCI-H1666
How it was run: as §1

LCLC-97TM1 = test system: LCLC-97TM1
How it was run: as §1

SK-LU-1 = test system: SK-LU-1
How it was run: as §1

BEN = test system: BEN
How it was run: as §1

NCI-H441 = test system: NCI-H441
How it was run: as §1

NCI-H1755 = test system: NCI-H1755
How it was run: as §1

A-427 = test system: A-427
How it was run: as §1

NCI-H2023 = test system: NCI-H2023
How it was run: as §1

NCI-H1944 = test system: NCI-H1944
How it was run: as §1

NCI-H460 = test system: NCI-H460
How it was run: as §1

NCI-H1395 = test system: NCI-H1395
How it was run: as §1

LU99A = test system: LU99A
How it was run: as §1

LOU-NH91 = test system: LOU-NH91
How it was run: as §1

SMILES: O=C(O)CCCCC(CCSCc1ccccc1)SCc1ccccc1 (centres undefined) [CPI-613] + CC1(C)CCC(c2ccc(Cl)cc2)=C(CN2CCN(c3ccc(C(=O)NS(=O)(=O)c4ccc(N[C@H](CCN5CCOCC5)CSc5ccccc5)c(S(=O)(=O)C(F)(F)F)c4)cc3)CC2)C1 [Navitoclax] (partner 0.5 µM)
- relative viability (NCI-H1793; first compound 5 µM): 0.393
- relative viability (NCI-H1793; first compound 50 µM): 0.346
- relative viability (NCI-H1793; first compound 158.11 µM): 0.363
- relative viability (NCI-H1793; first compound 500 µM): 0.1
- relative viability (NCI-H322M; first compound 5 µM): 1.21
- relative viability (NCI-H322M; first compound 15.81 µM): 1.17
- relative viability (NCI-H322M; first compound 50 µM): 1.27
- relative viability (NCI-H322M; first compound 158.11 µM): 1.05
- relative viability (NCI-H322M; first compound 500 µM): 0.982
- relative viability (HARA; first compound 5 µM): 1.14
- relative viability (HARA; first compound 15.81 µM): 1.13
- relative viability (HARA; first compound 50 µM): 1.16
- relative viability (HARA; first compound 158.11 µM): 0.504
- relative viability (HARA; first compound 500 µM): 0.0371
- relative viability (LXF-289; first compound 5 µM): 0.898
- relative viability (LXF-289; first compound 15.81 µM): 0.894
- relative viability (LXF-289; first compound 50 µM): 0.905
- relative viability (LXF-289; first compound 158.11 µM): 0.157
- relative viability (LXF-289; first compound 500 µM): 0.0115
- relative viability (PC-3 [JPC-3]; first compound 5 µM): 0.819
- relative viability (PC-3 [JPC-3]; first compound 15.81 µM): 0.7
- relative viability (PC-3 [JPC-3]; first compound 50 µM): 0.696
- relative viability (PC-3 [JPC-3]; first compound 158.11 µM): 0.448
- relative viability (PC-3 [JPC-3]; first compound 500 µM): 0.469
- relative viability (NCI-H2126; first compound 5 µM): 0.9
- relative viability (NCI-H2126; first compound 15.81 µM): 0.805
- relative viability (NCI-H2126; first compound 50 µM): 0.815
- relative viability (NCI-H2126; first compound 158.11 µM): 0.662
- relative viability (NCI-H2126; first compound 500 µM): 0.645
- relative viability (NCI-H2170; first compound 5 µM): 0.6
- relative viability (NCI-H2170; first compound 15.81 µM): 0.573
- relative viability (NCI-H2170; first compound 50 µM): 0.593
- relative viability (NCI-H2170; first compound 158.11 µM): 0.396
- relative viability (NCI-H2170; first compound 500 µM): 0.0998
- relative viability (NCI-H23; first compound 5 µM): 0.858
- relative viability (NCI-H23; first compound 15.81 µM): 0.711
- relative viability (NCI-H23; first compound 50 µM): 0.801
- relative viability (NCI-H23; first compound 158.11 µM): 0.564
- relative viability (NCI-H23; first compound 500 µM): 0.027
- relative viability (NCI-H1915; first compound 5 µM): 0.781
- relative viability (NCI-H1915; first compound 15.81 µM): 0.778
- relative viability (NCI-H1915; first compound 50 µM): 0.724
- relative viability (NCI-H1915; first compound 158.11 µM): 0.552
- relative viability (NCI-H1915; first compound 500 µM): 0.55
- relative viability (NCI-H1666; first compound 5 µM): 0.944
- relative viability (NCI-H1666; first compound 15.81 µM): 1.16
- relative viability (NCI-H1666; first compound 50 µM): 1.03
- relative viability (NCI-H1666; first compound 158.11 µM): 0.296
- relative viability (NCI-H1666; first compound 500 µM): 0.212
- relative viability (LCLC-97TM1; first compound 5 µM): 0.299
- relative viability (LCLC-97TM1; first compound 15.81 µM): 0.502
- relative viability (LCLC-97TM1; first compound 50 µM): 0.658
- relative viability (LCLC-97TM1; first compound 158.11 µM): 0.079
- relative viability (LCLC-97TM1; first compound 500 µM): 0.0431
- relative viability (SK-LU-1; first compound 5 µM): 0.78
- relative viability (SK-LU-1; first compound 15.81 µM): 0.586
- relative viability (SK-LU-1; first compound 50 µM): 0.857
- relative viability (SK-LU-1; first compound 158.11 µM): 0.195
- relative viability (SK-LU-1; first compound 500 µM): 0.156
- relative viability (BEN; first compound 5 µM): 0.0595
- relative viability (BEN; first compound 15.81 µM): 0.0465
- relative viability (BEN; first compound 50 µM): 0.0686
- relative viability (BEN; first compound 158.11 µM): 0.0624
- relative viability (BEN; first compound 500 µM): 0.0516
- relative viability (NCI-H441; first compound 5 µM): 0.564
- relative viability (NCI-H441; first compound 15.81 µM): 0.805
- relative viability (NCI-H441; first compound 50 µM): 0.731
- relative viability (NCI-H441; first compound 158.11 µM): 0.186
- relative viability (NCI-H441; first compound 500 µM): 0.0161
- relative viability (NCI-H1755; first compound 5 µM): 0.945
- relative viability (NCI-H1755; first compound 15.81 µM): 0.934
- relative viability (NCI-H1755; first compound 50 µM): 0.935
- relative viability (NCI-H1755; first compound 158.11 µM): 0.831
- relative viability (NCI-H1755; first compound 500 µM): 0.161
- relative viability (A-427; first compound 5 µM): 0.974
- relative viability (A-427; first compound 15.81 µM): 0.919
- relative viability (A-427; first compound 50 µM): 0.829
- relative viability (A-427; first compound 158.11 µM): 0.342
- relative viability (A-427; first compound 500 µM): 0.273
- relative viability (NCI-H2023; first compound 5 µM): 1.01
- relative viability (NCI-H2023; first compound 15.81 µM): 0.997
- relative viability (NCI-H2023; first compound 50 µM): 0.951
- relative viability (NCI-H2023; first compound 158.11 µM): 0.103
- relative viability (NCI-H2023; first compound 500 µM): 0.0259
- relative viability (NCI-H1944; first compound 5 µM): 0.998
- relative viability (NCI-H1944; first compound 15.81 µM): 1.01
- relative viability (NCI-H1944; first compound 50 µM): 1.02
- relative viability (NCI-H1944; first compound 158.11 µM): 0.769
- relative viability (NCI-H1944; first compound 500 µM): 0.627
- relative viability (NCI-H460; first compound 5 µM): 1.12
- relative viability (NCI-H460; first compound 15.81 µM): 1.09
- relative viability (NCI-H460; first compound 50 µM): 1.03
- relative viability (NCI-H460; first compound 158.11 µM): 0.29
- relative viability (NCI-H460; first compound 500 µM): 0.0105
- relative viability (NCI-H1395; first compound 5 µM): 1.48
- relative viability (NCI-H1395; first compound 15.81 µM): 1.03
- relative viability (NCI-H1395; first compound 50 µM): 1.08
- relative viability (NCI-H1395; first compound 158.11 µM): 1.16
- relative viability (NCI-H1395; first compound 500 µM): 0.961
- relative viability (LU99A; first compound 5 µM): 0.631
- relative viability (LU99A; first compound 15.81 µM): 0.77
- relative viability (LU99A; first compound 50 µM): 0.816
- relative viability (LU99A; first compound 158.11 µM): 0.142
- relative viability (LU99A; first compound 500 µM): 0.0335
- relative viability (LOU-NH91; first compound 5 µM): 0.683
- relative viability (LOU-NH91; first compound 15.81 µM): 0.653
- relative viability (LOU-NH91; first compound 50 µM): 0.664
- relative viability (LOU-NH91; first compound 158.11 µM): 0.682
- relative viability (LOU-NH91; first compound 500 µM): 0.579

Source: the supplement of paper PMC10307832
